Consider 17 molecules from patent US9834563B2 (Merck Sharp & Dohme Corp., priority 2013, dated 2017).

Assay [1] concerns the target T1, Human GPR40 (Homo sapiens, UniProt O14842). Description: FLIPR assay: agonist-induced calcium mobilization in GPR40/CHO NFAT BLA cells. The class given is cell-based. Set-up: expressed in transfected cells; host or cells: CHO cells stably expressing NFAT BLA (beta-lactamase). An excerpt: (§1) Human and mouse GPR40 stable cell-lines were generated in CHO cells stably expressing NFAT BLA (Beta-lactamase). A human GPR40 stable cell-line was generated in HEK cells stably expressing the aequorin expressing reporter. The expression plasmids were transfected using lipofectamine, LIFE TECHNOLOGIES (Carlsbad, Calif.), following manufacturer's instructions. Stable cell-lines were generated following drug selection.
FLIPR (Fluorimetric Imaging Plate Reader, Molecular Devices) assays were performed to measure agonist-induced calcium mobilization of the stable clones. For the FLIPR assay, one day before assay, GPR40/CHO NFAT BLA cells were seeded into black-wall-clear-bottom 384-well plates (Costar) at 1.4×10e4 cells/20 μL medium/well. The cells were incubated with 20 μl/well of the assay buffer (HBSS, 0.1% BSA, 20 mM HEPES, 2.5 mM probenecid, pH 7.4) containing 8 μM fluo-4, AM, 0.08% pluronic acid at room temperature for 100 minutes. Fluorescence output was measured using FLIPR. Compounds were dissolved in DMSO and diluted to desired concentrations with assay buffer. 13.3 μL/well of compound solution was added. The activities of the compounds in the examples have EC50 (effective concentration of compound to afford 50% of the maximum observed fluorescence) values listed in Table I.
(A change in cytosolic calcium serves as a functional read-out for many receptors and channels.)

Assay [2] concerns the target T1, Human GPR40. Description: Inositol phosphate turnover (IP1) assay in HEK cells stably expressing human GPR40. The assay is classed as cell-based. Set-up: expressed in transfected cells. The following applies: HEK cells stably expressing human GPR40, 3H-inositol labeling, 60 min compound incubation. The method, then: as §1
The assay is performed in a 96-well format. HEK cells stably expressing human GPR40 are plated to be 60-80% confluent within 72 h. After 72 h, the plates are aspirated and the cells washed with inositol-free DMEM (ICN). The wash media is replaced with 150 μL of 3H-inositol labeling media (inositol-free media containing 0.4% human albumin or 0.4% mouse albumin, 1× pen/strep antibiotics, glutamine, 25 mM HEPES to which is added 3H-myo-inositol NEN #NET114A 1 mCi/mL, 25 Ci/mmol diluted 1:150 in loading media with a final specific radioactivity of 1 μCi/150 μL). Alternatively, the human and mouse albumin can be added after the overnight labeling step before the addition of LiCl.
The assay is typically run the next day after 18 h labeling. On the day of the assay, 5 μL of 300 mM LiCl is added to all wells and incubated at 37 degrees for 20 min. 0.75 μL of 200× compounds are added and incubated with the cells for 60 min at 37 degrees. The media is then aspirated off and the assay terminated with the addition of 60 μL 10 mM formic acid. The cells are lysed for 60 min at room temperature. 15-30 μL of lysate is mixed with 70 μL/1 mg YSi SPA beads AMERSHAM (United Kingdom) in clear bottom Isoplates. The plates are shaken for 2 h at room temperature. Beads are allowed to settle and the plates are counted in the Wallac MICROBETA instrument. The activities of the compounds in the examples have EC50 (effective concentration of compound to afford 50% of the maximum observed […]) values listed in Table I.

T1 sequence (O14842 whole entry): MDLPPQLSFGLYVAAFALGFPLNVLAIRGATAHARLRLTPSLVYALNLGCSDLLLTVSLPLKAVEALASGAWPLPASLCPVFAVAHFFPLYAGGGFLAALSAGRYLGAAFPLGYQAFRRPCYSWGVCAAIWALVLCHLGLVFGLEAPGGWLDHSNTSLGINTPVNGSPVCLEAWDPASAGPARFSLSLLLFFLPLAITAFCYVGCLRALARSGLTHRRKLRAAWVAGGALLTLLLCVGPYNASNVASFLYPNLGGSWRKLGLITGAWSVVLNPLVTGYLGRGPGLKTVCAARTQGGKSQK

Usually EC50 stands for the concentration at which the effect is half-maximal. For the molecule `Cc1cc(NCCCS(C)(=O)=O)ncc1-c1ccc(F)c(COc2ccc3c(c2)C[C@H]2[C@H](C(=O)O)[C@@H]32)c1` [Example 14, 4-{2-Fluoro-5-[6-(3-methanesulfonyl-propylamino)-4-methyl-pyridin-3-yl]-benzyloxy}-1,1a,6,6a-tetrahydro-cyclopropa[a]indene-1-carboxylic acid], the EC50 was found to be 145 nM at Human GPR40 [1] and 83.5 nM on Human GPR40 [2].

On to `Cc1nc(OCCCS(C)(=O)=O)ccc1-c1ccc(F)c(COc2ccc3c(c2)C[C@H]2[C@H](C(=O)O)[C@@H]32)c1F` [Example 20, 4-(2,6-Difluoro-3-[6-(3-methanesulfonyl-propoxy)-2-methyl-pyridin-3-yl]-benzyloxy)-1,1a,6,6a-tetrahydro-cyclopropa[a]indene-1-carboxylic acid], for which the EC50 at Human GPR40 [1] was 179 nM; on Human GPR40 [2], 51.5 nM.

For `Cc1ccc(COc2ccc3c(c2)C[C@H]2[C@H](C(=O)O)[C@@H]32)cc1-c1cnc2c(ccn2CCCS(C)(=O)=O)c1` [Example 23, (1S,1aS,6aR)-4-((4-methyl-3-(1-(3-(methylsulfonyl)propyl)-1H-pyrrolo[2,3-b]pyridin-5-yl)benzyl)oxy)-1,1a,6,6a-tetrahydrocyclopropa[a]indene-1-carboxylic acid], the EC50 was determined as 74.2 nM on Human GPR40 [1] and 84.5 nM on Human GPR40 [2].

With `O=C(O)[C@H]1[C@@H]2Cc3cc(OCc4cc(-c5cnc6[nH]ccc6c5)ccc4F)ccc3[C@@H]21` [Example 24, (1S,1aS,6aR)-4-((2-fluoro-5-(1H-pyrrolo[2,3-b]pyridin-5-yl)benzyl)oxy)-1,1a,6,6a-tetrahydrocyclopropa[a]indene-1-carboxylic acid], the EC50 on Human GPR40 [1] came to 73.3 nM; at Human GPR40 [2], 304 nM.

Take `Cc1nc(OC[C@@H]2CCCC[C@H]2S(C)(=O)=O)ccc1-c1ccc(F)c(COc2ccc3c(c2)C[C@H]2[C@H](C(=O)O)[C@@H]32)c1` [Example 25, (1S,1aS,6aR)-4-((2-fluoro-5-(2-methyl-6-(((1S,2R)-2-(methylsulfonyl)cyclohexyl)methoxy)pyridin-3-yl)benzyl)oxy)-1,1a,6,6a-tetrahydrocyclopropa[a]indene-1-carboxylic acid]: the EC50 on Human GPR40 [1] was 67.9 nM; at Human GPR40 [2], 39 nM.

Turning to `Cc1nc(OCC2(O)CCCCC2O)ccc1-c1ccc(F)c(COc2ccc3c(c2)C[C@H]2[C@H](C(=O)O)[C@@H]32)c1` (stereo partly drawn) [Example 26, (1S,1aS,6aR)-4-((5-(6-((1,2-dihydroxycyclohexyl)methoxy)-2-methylpyridin-3-yl)-2-fluorobenzyl)oxy)-1,1a,6,6a-tetrahydrocyclopropa[a]indene-1-carboxylic acid], the EC50 on Human GPR40 [1] came out at 83.8 nM; on Human GPR40 [2], 25.5 nM.

Take `Cc1nc(OCC2CCC[C@H](O)[C@@H]2O)ccc1-c1ccc(F)c(COc2ccc3c(c2)C[C@H]2[C@H](C(=O)O)[C@@H]32)c1` (stereo partly drawn) [Example 27, (1S,1aS,6aR)-4-((5-(6-(((2R,3S)-2,3-dihydroxycyclohexyl)methoxy)-2-methylpyridin-3-yl)-2-fluorobenzyl)oxy)-1,1a,6,6a-tetrahydrocyclopropa[a]indene-1-carboxylic acid]: the EC50 at Human GPR40 [1] amounted to 48.9 nM; at Human GPR40 [2], 10 nM.

For the molecule `Cc1nc(OCC2CCOCC2)ccc1-c1ccc(F)c(COc2ccc3c(c2)C[C@H]2[C@H](C(=O)O)[C@@H]32)c1` [Example 28, (1S,1aS,6aR)-4-((2-fluoro-5-(2-methyl-6-((tetrahydro-2H-pyran-4-yl)methoxy)pyridin-3-yl)benzyl)oxy)-1,1a,6,6a-tetrahydrocyclopropa[a]indene-1-carboxylic acid], the figures for the EC50 on Human GPR40 [1] and on Human GPR40 [2] were 18.5 nM and 8 nM, respectively.

Take `Cc1nc(OCCCCn2nccn2)ccc1-c1ccc(F)c(COc2ccc3c(c2)CC2C(C(=O)O)C32)c1` (stereo not shown) [Example 29, 4-((5-(6-(4-(2H-1,2,3-triazol-2-yl)butoxy)-2-methyl-pyridin-3-yl)-2-fluorobenzyl)oxy)-1,1a,6,6a-tetrahydrocyclo-propa[a]indene-1-carboxylic acid]: the EC50 was determined as 16.1 nM on Human GPR40 [1] and 26.5 nM at Human GPR40 [2].

In the case of `Cc1cc(OCCC2(O)COC2)ncc1-c1ccc(F)c(COc2ccc3c(c2)C[C@H]2[C@H](C(=O)O)[C@@H]32)c1` [Example 30, (1S,1aS,6aR)-4-((2-fluoro-5-(6-(2-(3-hydroxyoxetan-3-yl)ethoxy)-4-methylpyridin-3-yl)benzyl)oxy)-1,1a,6,6a-tetrahydro-cyclopropa[a]indene-1-carboxylic acid], the results for the EC50 on Human GPR40 [1] and at Human GPR40 [2] were 49.2 nM and 30 nM, respectively.

On to `Cc1nc(O[C@@H]2CO[C@H]3[C@@H]2OC[C@@H]3O)ccc1-c1ccc(F)c(COc2ccc3c(c2)C[C@H]2[C@H](C(=O)O)[C@@H]32)c1` [Example 31, (1S,1aS,6aR)-4-((2-fluoro-5-(6-(((3R,3aR,6S,6aR)-6-hydroxyhexahydrofuro[3,2-b]furan-3-yl)oxy)-2-methylpyridin-3-yl)benzyl)oxy)-1,1a,6,6a-tetrahydrocyclopropa[a]indene-1-carboxylic acid], for which the figures for the EC50 at Human GPR40 [1] and at Human GPR40 [2] were 30.9 nM and 14 nM, respectively.

As for `CS(=O)(=O)CCCOc1cc(C(F)(F)F)c(-c2ccc(F)c(COc3ccc4c(c3)C[C@H]3[C@H](C(=O)O)[C@@H]43)c2)cn1` [Example 32, (1S,1aS,6aR)-4-((2-fluoro-5-(6-(3-(methylsulfonyl)propoxy)-4-(trifluoromethyl)pyridin-3-yl)benzyl)oxy)-1,1a,6,6a-tetrahydrocyclopropa[a]indene-1-carboxylic acid], the EC50 at Human GPR40 [1] stood at 20.6 nM; on Human GPR40 [2] it was 5 nM.

Turning to `Cc1nc(OCCCOCc2ccccc2)ccc1-c1ccc(F)c(COc2ccc3c(c2)C[C@H]2[C@H](C(=O)O)[C@@H]32)c1` [Example 34, (1S,1aS,6aR)-4-((5-(6-(3-(benzyloxy)propoxy)-2-methylpyridin-3-yl)-2-fluorobenzyl)oxy)-1,1a,6,6a-tetrahydrocyclo-propa[a]indene-1-carboxylic acid], the EC50 on Human GPR40 [1] worked out at 75.1 nM; at Human GPR40 [2], 889 nM.

As to `Cc1nc(OC2CCS(=O)(=O)CC2)ccc1-c1ccc(F)c(C(C)Oc2ccc3c(c2)C[C@H]2[C@H](C(=O)O)[C@@H]32)c1` (stereo partly drawn) [Example 35, (1S,1aS,6aR)-4-(1-(5-(6-((1,1-dioxidotetrahydro-2H-thiopyran-4-yl)oxy)-2-methyl-pyridin-3-yl)-2-fluorophenyl)ethoxy)-1,1a,6,6a-tetrahydrocyclo-propa[a]indene-1-carboxylic acid], the values for the EC50 on Human GPR40 [1] and on Human GPR40 [2] were 77.8 nM and 1390 nM, respectively.

With `Cc1nc(OCCCN2CCCC2=O)ccc1-c1ccc(F)c(COc2ccc3c(c2)C[C@H]2[C@H](C(=O)O)[C@@H]32)c1` [Example 36, (1S,1aS,6aR)-4-((2-fluoro-5-(2-methyl-6-(3-(2-oxopyrrolidin-1-yl)propoxy)pyridin-3-yl)benzyl)oxy)-1,1a,6,6a-tetrahydrocyclo-propa[a]indene-1-carboxylic acid], the EC50 on Human GPR40 [1] is 19.9 nM; on Human GPR40 [2], 20.5 nM.

Consider `Cc1nc(OCCCC2(O)CC2)ccc1-c1ccc(F)c(COc2ccc3c(c2)C[C@H]2[C@H](C(=O)O)[C@@H]32)c1` [Example 37, (1S,1aS,6aR)-4-((2-fluoro-5-(6-(3-(1-hydroxycyclopropyl)propoxy)-2-methylpyridin-3-yl)benzyl)oxy)-1,1a,6,6a-tetrahydrocyclopropa[a]indene-1-carboxylic acid], for which the EC50 at Human GPR40 [1] amounted to 16.6 nM; at Human GPR40 [2], 14.7 nM.

In the case of `Cc1nc(OC2CCC(C(C)(C)O)CC2)ccc1-c1ccc(F)c(COc2ccc3c(c2)C[C@H]2[C@H](C(=O)O)[C@@H]32)c1` (stereo partly drawn) [Example 38, (1S,1aS,6aR)-4-((2-fluoro-5-(6-((4-(2-hydroxypropan-2-yl)cyclohexyl)oxy)-2-methylpyridin-3-yl)benzyl)oxy)-1,1a,6,6a-tetrahydro-cyclopropa[a]indene-1-carboxylic acid], the EC50 on Human GPR40 [1] was determined as 74.1 nM; at Human GPR40 [2], 80.8 nM.
